Data on ten molecules can be found in patent publication US20230031406A1, “COMPOUNDS AND COMPOSITIONS FOR TREATING CONDITIONS ASSOCIATED WITH NLRP ACTIVITY” (Novartis AG, priority 2018, published 2023).

The term IC50 denotes the concentration needed to halve the response being measured.

The subject of this test is PMA-differentiated THP-1 cells. Nature of the test: IL-1β production in PMA-differentiated THP-1 cells stimulated with gramicidin (hTHP-1 assay containing 2% fetal bovine serum; Procedures 1 and 2). The format is cell-based, human. Conditions: 2% fetal bovine serum, class symbols. The procedure, abridged: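 Human monocytic THP-1 cells, matured overnight with PMA at 20 ng/ml, are seeded in low-serum (2% FBS) RPMI. Test compounds, at final concentrations from 100 down to 0.0017 μM, precede gramicidin (5 μM, 2 h) by one hour. Released IL-1β is then determined by HTRF.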

[1] abbreviates: Homo sapiens, THP-1, Table B2, read-out: hTHP-1 IC50.
Setting [2] is: Table B3, hTHP-1 assay, read-out: IC50.

Molecules are shown by their SMILES. Like-named read-outs stand apart in the source and are kept apart here.

As to `Cc1c(C(F)(F)F)nc2c(c1NC(=O)N=S(N)(=O)c1cnn(C(F)F)c1)CCC2` (single isomer, unassigned) [Compound 617a, (R) or (S)-1-(Difluoromethyl)-N′-((3-methyl-2-(trifluoromethyl)-6,7-dihydro-5H-cyclopenta[b]pyridin-4-yl)carbamoyl)-1H-pyrazole-4-sulfonimidamide], the IC50 under setting [1] fell in the range of 5 to 30 µM.
`CCn1cc(F)c(S(N)(=O)=NC(=O)Nc2c3c(nc(C4CC4)c2C2CC2)CCC3)n1` (single isomer, unassigned) [Example 708, (S) or (R)-N′-((2,3-dicyclopropyl-6,7-dihydro-5H-cyclopenta[b]pyridin-4-yl)carbamoyl)-1-ethyl-4-fluoro-1H-pyrazole-3-sulfonimidamide]: the IC50 under setting [2] lay in the range of 5 to 30 µM.
On to `CC(C)(O)c1csc(S(N)(=O)=NC(=O)Nc2c3c(nc(C(F)(F)F)c2C2CC2)CCC3)c1` (single isomer, unassigned) [Example 646, (R) or (S)-N′-((3-((3-2-(trifluoromethyl)-6,7-dihydro-5H-cyclopenta[b]pyridin-4-yl)carbamoyl)-4-(2-hydroxypropan-2-yl)thiophene-2-sulfonimidamide], for which the IC50 under setting [2] lay in the range of 0.04 to 0.2 µM.
Consider `CC(C)(O)c1sc(S(N)(=O)=NC(=O)Nc2c3c(nc4c2CCC4)CCC3)cc1F` (stereo not shown) [Compound 177, 4-fluoro-N′-((1,2,3,5,6,7-hexahydrodicyclopenta[b,e]pyridin-8-yl)carbamoyl)-5-(2-hydroxypropan-2-yl)thiophene-2-sulfonimidamide], for which the IC50 (Homo sapiens, THP-1, Table B1, read-out: Average IC50 of compounds in hTHP-1 assay: hTHP-1 IC50) lay within 5 to 30 µM.
As to `CCn1cc(F)c(S(N)(=O)=NC(=O)Nc2c3c(nc(C4CC4)c2C2CC2)CCC3)n1` (stereo not shown) [Example 618, N′-((2,3-dicyclopropyl-6,7-dihydro-5H-cyclopenta[b]pyridin-4-yl)carbamoyl)-1-ethyl-4-fluoro-1H-pyrazole-3-sulfonimidamide], under “Homo sapiens, THP-1, Table B3, hTHP-1 assay, read-out: IC50”, the IC50 fell in the range of 0.04 to 0.2 µM.
As to `CCn1cc(F)c(S(N)(=O)=NC(=O)Nc2c3c(nc(C(F)(F)F)c2C2CC2)CCC3)n1` (single isomer, unassigned) [Example 774, (S) or (R)-N′-((3-cyclopropyl-2-(trifluoromethyl)-6,7-dihydro-5H-cyclopenta[b]pyridin-4-yl)carbamoyl)-1-ethyl-4-fluoro-1H-pyrazole-3-sulfonimidamide], for the setting “Table B4, read-out: hTHP-1 IC50”, the IC50 was in the range of 5 to 30 µM.
Consider `Cc1nc2c(c(NC(=O)N=S(N)(=O)c3cc(C(C)(C)O)cs3)c1C(C)C)CCC2` (single isomer, unassigned) [Compound 622b, (R) or (S)-4-(2-Hydroxypropan-2-yl)-N′-((3-isopropyl-2-methyl-6,7-dihydro-5H-cyclopenta[b]pyridin-4-yl)carbamoyl) thiophene-2-sulfonimidamide], for which the IC50 under setting [1] was 5 to 30 µM.
For `CCc1c(CC(F)(F)F)nc2c(c1NC(=O)N=S(N)(=O)c1sc(C(C)(C)O)cc1F)CCC2` (single isomer, unassigned) [Example 639, (R) or (S)-N′-((3-ethyl-2-(2,2,2-trifluoroethyl)-6,7-dihydro-5H-cyclopenta[b]pyridin-4-yl)carbamoyl)-3-fluoro-5-(2-hydroxypropan-2-yl) thiophene-2-sulfonimidamide], under setting [2], the IC50 was in the range of 0.2 to 1 µM.
Take `Cc1c(C2CCC2)nc2c(c1NC(=O)N=S(N)(=O)c1cc(C(C)(C)O)cs1)CCC2` (single isomer, unassigned) [Compound 658b, (R) or (S)-N′-((2-cyclobutyl-3-methyl-6,7-dihydro-5H-cyclopenta[b]pyridin-4-yl)carbamoyl)-4-(2-hydroxypropan-2-yl)thiophene-2-sulfonimidamide]: under setting [1], the IC50 was 1 to 5 µM.
For `CC(C)(O)c1csc(S(N)(=O)=NC(=O)Nc2c3c(nc4c2CCC42CC2)CCC3)c1` (single isomer, unassigned) [Compound 114a, (R) or (S)-4-(2-hydroxy-propan-2-yl)-N′-((1′,5′,6′,7′-tetrahydro-2′H-spiro[cyclopropane-1,3′-dicyclopenta[b,e]pyridin]-8′-yl)carbamoyl)thiophene-2-sulfonimidamide], the 50% inhibitory concentration (IC50) (Table B1, read-out: Average IC50 of compounds in hTHP-1 assay: hTHP-1 IC50) lay in the range of 0.04 to 0.2 µM.
